Assay results reported in publication PMC3765847, “A polybromodiphenyl ether from an Indonesian marine sponge Lamellodysideaherbacea and its chemical derivatives inhibit protein tyrosine phosphatase 1B, an important target for diabetes treatment” (Journal of Natural Medicines, 2012).

Tests used:
[1] = target: T1, protein tyrosine phosphatase 1B (PTP1B) (Homo sapiens, UniProt P18031); assay: PTP1B inhibitory assay (pNPP hydrolysis); assay type: biochemical; conditions: pNPP substrate, pH 6.0, 37 °C, 30 min
T1 sequence (P18031 1-435): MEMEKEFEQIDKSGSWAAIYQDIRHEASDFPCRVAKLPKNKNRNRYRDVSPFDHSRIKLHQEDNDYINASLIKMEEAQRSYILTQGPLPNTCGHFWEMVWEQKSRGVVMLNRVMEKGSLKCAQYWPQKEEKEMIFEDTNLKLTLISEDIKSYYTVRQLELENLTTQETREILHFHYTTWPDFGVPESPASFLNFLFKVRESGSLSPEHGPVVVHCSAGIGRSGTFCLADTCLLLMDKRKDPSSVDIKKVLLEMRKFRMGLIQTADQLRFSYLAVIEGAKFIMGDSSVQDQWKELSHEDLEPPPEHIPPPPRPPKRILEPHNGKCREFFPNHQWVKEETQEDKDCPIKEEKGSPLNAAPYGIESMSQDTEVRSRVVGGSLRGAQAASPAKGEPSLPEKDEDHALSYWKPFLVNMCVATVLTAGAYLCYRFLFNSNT
Experimental: Protein tyrosine phosphatase 1B (PTP1B) inhibitory activity was determined by measuring the rate of hydrolysis of a substrate, p-nitrophenyl phosphate (pNPP, Sigma, St. Louis, MO, USA) according to the published method with a slight modification. Briefly, PTP1B (100 μL of 0.5 μg/mL stock solution, Enzo Life Sciences, Farmingdale, NY, USA) in 50 mM citrate buffer (pH 6.0) containing 0.1 M NaCl, 1 mM dithiothreitol (DTT), and 1 mM N,N,N′,N′-ethylenediamine tetraacetate (EDTA) were added to each well of a 96-well plastic plate (Corning Inc., Corning, NY, USA). […] The reaction was initiated by the addition of pNPP (100 μL of 4.0 mM stock solution) in the citrate buffer, incubated at 37 °C for 30 min, and terminated with the addition of 10 μL of a stop solution (10 M NaOH). The optical density of each well was measured at 405 nm using an MTP-500 microplate reader (Corona Electric Co., Ltd., Ibaraki, Japan). PTP1B inhibitory activity (%) is defined as [1 − (ABSsample − ABSblank)/(ABScontrol − ABSblank)] × 100, where ABSblank is the absorbance of wells containing only the buffer and pNPP, ABScontrol is the absorbance of p-nitrophenol liberated by the enzyme in the assay system without a test sample, and ABSsample is that with a test sample. The assays were performed in two duplicate experiments for all test samples. Oleanolic acid (Tokyo Chemical Industry, Tokyo, Japan), a known phosphatase inhibitor [15], was used as a positive control.

[2] = in vitro; assay type: cell-based; conditions: human
Experimental: Cytotoxic activity against Huh-7 cells was assessed by the MTT assay, a modification of our previously described method. Following the treatment of cells with test samples, 10 μL of MTT (5.0 mg/mL saline) was added to each well, the samples were incubated for 90 min at 37 °C and centrifuged (300g for 5 min), and the supernatant was aspirated off. The cells were lysed and solubilized by the addition of 100 μL of 0.040 N HCl in 2-propanol. The absorbance of each well was determined at 590 nm using an Inter-med model NJ-2300 Microplate Reader (Cosmo Bio Co., Ltd., Tokyo, Japan). Survival (%) was calculated relative to the control.

[3] = in vitro; assay type: cell-based; conditions: human; remark: listed apart in the source
Experimental: (§1) HCT-15 and Jurkat cells were obtained from the Center for Biomedical Research, Institute of Development, Aging, and Cancer, Tohoku University (Miyagi, Japan). The cell lines were cultured in RPMI-1640 medium. The medium was supplemented with 10 % fetal bovine serum, 100 U/mL penicillin, and 100 μg/mL streptomycin. Exponentially growing cells, cultured in a humidified chamber at 37 °C containing 5.0 % CO2, were used for the experiments. Cytotoxic activity was evaluated using the colorimetric MTT assay. HCT-15 (1.0 × 10^4 cells in 100 μL) or Jurkat cells (2.0 × 10^4 cells in 100 μL) were added to each well of a 96-well plastic plate. A sample (1.0 μL in MeOH) was added to each well to make the final concentrations from 0 to 39–47 μM, and the cells were incubated for 48 h at 37 °C. MTT (10 μL of 5.5 mg/mL stock solution) and a cell lysate solution (90 μL, 40 % N,N-dimethylformamide, 20 % sodium dodecyl sulfate, 2.0 % CH3COOH and 0.030 % HCl) were added to each well, and the plate was shaken thoroughly by agitation at room temperature for overnight. The optical density of each well was measured at 570 nm using an MTP-500 microplate reader.

[4] = in vitro; assay type: cell-based; conditions: human; remark: listed apart in the source
Experimental: as §1

COc1c(Br)cc(Br)cc1Oc1c(O)cc(Br)cc1Br [Compound 1, 2-(3′,5′-dibromo-2′-methoxyphenoxy)-3,5-dibromophenol]
IC50 [1]: 850 nM
IC50 [2]: 32000 nM

COc1cc(Br)cc(Br)c1Oc1cc(Br)cc(Br)c1OC [Compound 2, 3,5-dibromo-2-(3′,5′-dibromo-2′-methoxyphenoxy)-1-methoxybenzene]
IC50 [1]: 1700 nM
IC50 at 48 h [3]: > 46000 nM
IC50 at 48 h [4]: > 46000 nM
IC50 [2]: 48000 nM

COc1c(Br)cc(Br)cc1Oc1c(Br)cc(Br)cc1OC(C)=O [Compound 3, 3,5-dibromo-2-(3′,5′-dibromo-2′-methoxyphenoxy)phenyl ethanoate]
IC50 [1]: 620 nM

CCCC(=O)Oc1cc(Br)cc(Br)c1Oc1cc(Br)cc(Br)c1OC [Compound 4, 3,5-Dibromo-2-(3′,5′-dibromo-2′-methoxyphenoxy)phenyl butanoate]
IC50 [1]: 680 nM

CCCCCC(=O)Oc1cc(Br)cc(Br)c1Oc1cc(Br)cc(Br)c1OC [Compound 5, 3,5-Dibromo-2-(3′,5′-dibromo-2′-methoxyphenoxy)phenyl hexanoate]
IC50 [1]: 690 nM

COc1c(Br)cc(Br)cc1Oc1c(Br)cc(Br)cc1OC(=O)c1ccccc1 [Compound 6, 3,5-Dibromo-2-(3′,5′-dibromo-2′-methoxyphenoxy)phenyl benzoate]
IC50 [1]: 970 nM
